Data: patent publication US12490739B2, “Synergistically effective fungicide composition comprising choline phosphonate and at least one additional fungicide” (BELCHIM CROP PROTECTION NV, priority 2019, dated 2025)

Tests used:
Assay type in all cases: in vivo
[1] = tested on: Sphaerotheca fuliginea; assay: Example 8 field trial, cucumber (Cucumis sativus) infected with powdery mildew, Spain; settings: 7 DA-A3, BBCH 63, 500 g a.c./ha
[2] = tested on: Podosphaera leucotricha; assay: Example 14 field trials, apple (Malus domestica var. Gold Rush, var. Morgenduft Dallago) infected with powdery mildew; settings: 840 g a.c./ha
[3] = tested on: Venturia inaequalis; assay: Example 15 field trial, apple (Malus domestica var. Gala) infected with apple scab, France; settings: PESINC, 200 leaves, 1200 g a.c./ha
[4] = tested on: Plasmopara viticola; assay: Example 1 field trial, Vitis vinifera var. Chardonnay infected with downy mildew, South Africa; settings: 120 g a.c./ha
[5] = tested on: Peronospora cumensis; assay: Example 2 field trial, cucumber (Cucumis sativus) infected with downy mildew, France; settings: PESSEV, 150 g a.c./ha
[6] = tested on: Plasmopara viticola; assay: Example 7 field trial, Vitis vinifera var. Merlot infected with downy mildew, France; settings: 130 g a.c./ha
[7] = tested on: Venturia inaequalis; assay: Example 4 field trials, apple (Malus domestica var. Golden delicious) infected with scab; settings: 250 g a.c./ha

## OCC1(O)OC[C@@H](O)[C@H](O)[C@@H]1O (stereo partly drawn) [TAG, (3S,4S,5R)-2-(hydroxymethyl)oxane-2,3,4,5-tetrol]
[1]; PESINC
  TAG f.e. (%): 83.9%
[1]; PESSEV
  TAG f.e. (%): 93.2%
[2]; PESINC, location 1 (France), 20 shoots, 7 DA-A5, BBCH 71
  TAG f.e. (%): 26.7%
[2]; PESINC, location 1 (France), 100 leaves, 5 DA-A8, BBCH 74
  TAG f.e. (%): 18.8%
[2]; PESINC, location 1 (France), 100 leaves, 6 DA-A6, BBCH 74
  TAG f.e. (%): 14.5%
[2]; PESINC, location 1 (France), 100 leaves, 15 DA-A8, BBCH 76
  TAG f.e. (%): 8.7%
[2]; PESINC, location 1, 20 shoots, 7 DA-A5, BBCH 71, second listing (r40)
  TAG f.e. (%): 0.6%
[2]; PESINC, location 1, 100 leaves, 5 DA-A8, BBCH 74, second listing (r52)
  TAG f.e. (%): 2.4%
[2]; PESINC, location 1, 100 leaves, 6 DA-A6, BBCH 74, second listing (r46)
  TAG f.e. (%): 36.4%
[2]; PESINC, location 1, 100 leaves, 15 DA-A8, BBCH 76, second listing (r58)
  TAG f.e. (%): 5.9%
[2]; PESSEV, location 1 (France), 100 leaves, 5 DA-A8, BBCH 74
  TAG f.e. (%): 38.4%
[2]; PESSEV, location 1 (France), 100 leaves, 6 DA-A6, BBCH 74
  TAG f.e. (%): 15.6%
[2]; PESSEV, location 1 (France), 100 leaves, 15 DA-A8, BBCH 76
  TAG f.e. (%): 2.6%
[2]; PESSEV, location 1, 100 leaves, 5 DA-A8, BBCH 74, second listing (r49)
  TAG f.e. (%): 1.6%
[2]; PESSEV, location 1, 100 leaves, 6 DA-A6, BBCH 74, second listing (r43)
  TAG f.e. (%): 44.9%
[2]; PESSEV, location 1, 100 leaves, 15 DA-A8, BBCH 76, second listing (r55)
  TAG f.e. (%): 3.5%
[3]; 28 DA-A12, BBCH 73
  TAG f.e. (%): 28.1%
[3]; 56 DA-A12, BBCH 75
  TAG f.e. (%): 28.0%

## COC(=O)CC(NC(=O)[C@@H](NC(=O)OC(C)C)C(C)C)c1ccc(Cl)cc1 (stereo partly drawn) [VAL, methyl 3-(4-chlorophenyl)-3-[[(2S)-3-methyl-2-(propan-2-yloxycarbonylamino)butanoyl]amino]propanoate]
[4]; PESINC, 50 bunches, 14 DA-A3, BBCH 77
  VAL f.e. (%): 64.0%
[4]; PESINC, 50 bunches, 14 DA-A5, BBCH 83
  VAL f.e. (%): 53.6%
[4]; PESINC, 100 leaves, 14 DA-A3, BBCH 77
  VAL f.e. (%): 57.6%
[4]; PESSEV, 50 bunches, 14 DA-A3, BBCH 77
  VAL f.e. (%): 75.9%
[4]; PESSEV, 50 bunches, 14 DA-A5, BBCH 83
  VAL f.e. (%): 73.3%
[4]; PESSEV, 100 leaves, 14 DA-A3, BBCH 77
  VAL f.e. (%): 66.9%
[5]; 6 DA-A2, BBCH 19
  VAL f.e. (%): 31.7%
[5]; 7 DA-A1, BBCH 16
  VAL f.e. (%): 43.6%
[5]; 7 DA-A4, BBCH 19
  VAL f.e. (%): 62.1%
[5]; 8 DA-A3, BBCH 19
  VAL f.e. (%): 31.7%
[5]; 14 DA-A4, BBCH 19
  VAL f.e. (%): 27.0%

## O=C(NCc1ncc(C(F)(F)F)cc1Cl)c1c(Cl)cccc1Cl [FLU, 2,6-dichloro-N-[[3-chloro-5-(trifluoromethyl)pyridin-2-yl]methyl]benzamide]
[6]; PESINC, 50 bunches, 0 DA-A3, BBCH 73
  FLU f.e. (%): 84.4%
[6]; PESINC, 50 bunches, 0 DA-A5, BBCH 77
  FLU f.e. (%): 37.5%
[6]; PESINC, 50 bunches, 9 DA-A6, BBCH 83
  FLU f.e. (%): 14.5%
[6]; PESINC, 100 leaves, 0 DA-A3, BBCH 73
  FLU f.e. (%): 62.3%
[6]; PESINC, 100 leaves, 0 DA-A5, BBCH 77
  FLU f.e. (%): 47.8%
[6]; PESINC, 100 leaves, 9 DA-A6, BBCH 83
  FLU f.e. (%): 32.2%
[6]; PESSEV, 50 bunches, 0 DA-A5, BBCH 77
  FLU f.e. (%): 83.6%
[6]; PESSEV, 50 bunches, 9 DA-A6, BBCH 83
  FLU f.e. (%): 46.8%

## N#Cc1sc2c(=O)c3ccccc3c(=O)c=2sc1C#N [DIT, 5,10-dioxobenzo[g][1,4]benzodithiine-2,3-dicarbonitrile]
[7]; PESINC, location 1 (France), 1 DA-A6, BBCH 74
  DIT f.e. (%): 19.8%
[7]; PESINC, location 1 (France), 6 DA-A4, BBCH 72
  DIT f.e. (%): 38.6%
[7]; PESINC, location 2 (United Kingdom), 5 DA-A8, BBCH 74
  DIT f.e. (%): 59.0%
[7]; PESINC, location 3 (Belgium), 31 DA-A9, BBCH 73
  DIT f.e. (%): 51.8%
[7]; PESINC, location 3 (Belgium), 80 DA-A9, BBCH 73
  DIT f.e. (%): 42.6%
[7]; PESSEV, location 1 (France), 1 DA-A6, BBCH 74
  DIT f.e. (%): 63.0%
[7]; PESSEV, location 1 (France), 6 DA-A4, BBCH 72
  DIT f.e. (%): 75.4%
